The record followed here is patent US8901118B2, “Compounds and methods for kinase modulation, and indications therefor” (Plexxikon Inc., priority 2010, dated 2014).

Data set [1] is described as follows: Relative solubility by turbidity in aqueous buffers (pH 1.5, 4.5, 6.8, 7.4). Format: physicochemical. To be noted: for turbidity threshold (L, M, H) 1.4: pH 1.5 (SGF); for turbidity threshold (L, M, H) 4.5: pH 4.5 (SIF); for turbidity threshold (L, M, H) 6.8: pH 6.8 (SIF); for turbidity threshold (L, M, H) 7.4: pH 7.4 (HEPES). In outline: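 Reported value: concentration at which optical density at 490, 535 and 650 nm passes 0.01, taken as the mean of the three wavelengths. Buffers were 0.5M NaCl pH 1.5, 0.05M NaH2PO4 pH 4.5 or 6.8, and 10 mM HEPES/150 mM NaCl pH 7.4, each receiving serial 1:1 DMSO dilutions of a 25 mM stock.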

The target in data set [2] is CYP3A4(BQ) (Homo sapiens, UniProt P08684). Put plainly: CYP3A4(BQ) inhibition. To be noted: CYP3A4, substrate BQ; read-out: Cyp IC50 3A4(BQ). Format: in vitro ADME. In outline: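 After 30 min incubation at 37° C, plates were read on a Tecan Safire 2 at 409 ex/460 em, and IC50 values came from signal plotted against compound concentration. Enzyme and substrate were sourced from BD Biosciences. The cofactor mix held 1.3% NADPH Regeneration system Solution A, 1.04% Solution B, 5% acetonitrile and 0.05% DMSO.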
Sequence of CYP3A4(BQ) (P08684 whole entry): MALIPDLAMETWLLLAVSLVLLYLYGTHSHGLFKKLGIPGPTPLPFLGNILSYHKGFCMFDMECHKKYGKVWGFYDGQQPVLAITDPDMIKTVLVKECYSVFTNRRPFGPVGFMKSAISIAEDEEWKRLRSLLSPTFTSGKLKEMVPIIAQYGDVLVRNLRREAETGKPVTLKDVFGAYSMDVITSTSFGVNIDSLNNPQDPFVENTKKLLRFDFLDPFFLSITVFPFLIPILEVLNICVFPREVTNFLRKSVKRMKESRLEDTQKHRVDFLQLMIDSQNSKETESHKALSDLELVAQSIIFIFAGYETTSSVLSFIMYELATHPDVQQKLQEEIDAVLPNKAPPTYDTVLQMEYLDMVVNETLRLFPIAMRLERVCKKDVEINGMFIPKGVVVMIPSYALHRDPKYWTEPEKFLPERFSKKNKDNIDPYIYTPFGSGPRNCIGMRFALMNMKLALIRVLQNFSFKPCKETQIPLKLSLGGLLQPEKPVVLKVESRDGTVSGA

Data set [3] deals with c-Kit kinase (Homo sapiens, UniProt P10721). Kind of data set: c-Kit kinase biochemical activity assay (AlphaScreen, biotin-(E4Y)10 phosphorylation). Conditions: 100 μM ATP; read-out: Biochemical Inhibition IC50 Kit. In outline: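 AlphaScreen read-out (streptavidin donor, anti-phosphotyrosine PY20 acceptor beads, EDTA stop) of c-Kit activity. Reaction: 0.75 ng kinase, 100 µM ATP, 30 nM biotin-(E4Y)10, 25 mM HEPES pH 7.5, 2 mM MgCl2, 2 mM MnCl2, 5% DMSO, 1 h room temperature. IC50 derived over an 8-point, two-fold dilution series.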
Sequence of c-Kit kinase (P10721 26-976): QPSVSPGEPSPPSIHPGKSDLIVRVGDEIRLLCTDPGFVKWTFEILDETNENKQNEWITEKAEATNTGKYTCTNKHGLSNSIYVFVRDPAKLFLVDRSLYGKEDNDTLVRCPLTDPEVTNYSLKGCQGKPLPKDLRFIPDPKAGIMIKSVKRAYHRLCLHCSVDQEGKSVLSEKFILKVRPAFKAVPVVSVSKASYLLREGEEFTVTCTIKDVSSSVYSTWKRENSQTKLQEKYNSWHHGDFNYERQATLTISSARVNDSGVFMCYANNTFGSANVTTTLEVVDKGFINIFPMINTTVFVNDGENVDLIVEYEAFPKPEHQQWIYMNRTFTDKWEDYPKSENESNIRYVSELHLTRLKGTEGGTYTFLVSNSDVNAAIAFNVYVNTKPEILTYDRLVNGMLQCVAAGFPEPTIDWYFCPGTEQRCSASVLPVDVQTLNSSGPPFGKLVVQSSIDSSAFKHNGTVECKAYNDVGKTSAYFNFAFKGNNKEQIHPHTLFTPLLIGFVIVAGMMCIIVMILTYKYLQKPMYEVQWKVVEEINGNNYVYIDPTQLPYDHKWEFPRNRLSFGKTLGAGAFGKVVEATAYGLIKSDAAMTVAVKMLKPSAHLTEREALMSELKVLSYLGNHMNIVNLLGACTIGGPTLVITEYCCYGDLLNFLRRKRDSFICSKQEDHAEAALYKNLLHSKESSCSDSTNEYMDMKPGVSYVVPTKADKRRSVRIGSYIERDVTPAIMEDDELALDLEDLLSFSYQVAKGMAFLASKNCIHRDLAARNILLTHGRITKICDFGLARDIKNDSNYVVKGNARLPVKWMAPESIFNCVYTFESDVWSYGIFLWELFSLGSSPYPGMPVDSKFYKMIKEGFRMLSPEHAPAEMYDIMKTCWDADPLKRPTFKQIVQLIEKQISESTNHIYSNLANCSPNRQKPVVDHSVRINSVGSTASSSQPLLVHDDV
In general terms: Alpha assays give light when donor and acceptor beads are brought close together.

Structures are written as SMILES. Bounds are passed on as bounds.

In general, IC50 refers to the midpoint of a concentration-inhibition curve. Turning to `CCNc1ncnc2[nH]cc(C(=O)c3ccc(Nc4ccc(OC)nc4)nc3F)c12` [Compound P-4081, [4-(ethylamino)-7H-pyrrolo[2,3-d]pyrimidin-5-yl]-[2-fluoro-6-[(6-methoxy-3-pyridyl)amino]-3-pyridyl]methanone], in data set [1], the “turbidity threshold (L, M, H) 1.4” value was “H (high solubility if the threshold concentration is >250 μm)”; the “turbidity threshold (L, M, H) 4.5” value is “M (moderate solubility if the threshold concentration is 31.3 μM to 250 μM)”; the “turbidity threshold (L, M, H) 6.8” value is on record as “H (high solubility if the threshold concentration is >250 μm)”; the “turbidity threshold (L, M, H) 7.4” value is “M (moderate solubility if the threshold concentration is 31.3 μM to 250 μM)”. Moreover, the IC50 in data set [2] was above 10 µM. In data set [3], the half-maximal inhibitory concentration (IC50) was below 0.1 µM.
Regarding `COc1ccc(Nc2ccc(C(=O)c3c[nH]c4ncnc(NC5CCCCC5)c34)c(F)n2)cn1` [Compound P-4082, [4-(cyclohexylamino)-7H-pyrrolo[2,3-d]pyrimidin-5-yl]-[2-fluoro-6-[(6-methoxy-3-pyridyl)amino]-3-pyridyl]methanone], in data set [1], the “turbidity threshold (L, M, H) 1.4” value was “M (moderate solubility if the threshold concentration is 31.3 μM to 250 μM)”; the “turbidity threshold (L, M, H) 4.5” value is recorded as “L (low solubility if the threshold concentration is <31.3 μM)”; the “turbidity threshold (L, M, H) 6.8” value is “L (low solubility if the threshold concentration is <31.3 μM)”; the “turbidity threshold (L, M, H) 7.4” value is given as “L (low solubility if the threshold concentration is <31.3 μM)”. For the same compound, the IC50 in data set [2] is 5 to 10 µM. Besides, the IC50 in data set [3] is below 1 µM.
As for `CNc1ncnc2[nH]cc(C(=O)c3ccc(Nc4ccc(OC)nc4)nc3F)c12` [Compound P-4083, [2-fluoro-6-[(6-methoxy-3-pyridyl)amino]-3-pyridyl]-[4-(methylamino)-7H-pyrrolo[2,3-d]pyrimidin-5-yl]methanone], in data set [1], the “turbidity threshold (L, M, H) 1.4” value is given as “M (moderate solubility if the threshold concentration is 31.3 μM to 250 μM)”; the “turbidity threshold (L, M, H) 4.5” value is on record as “M (moderate solubility if the threshold concentration is 31.3 μM to 250 μM)”; the “turbidity threshold (L, M, H) 6.8” value is “M (moderate solubility if the threshold concentration is 31.3 μM to 250 μM)”; the “turbidity threshold (L, M, H) 7.4” value is “H (high solubility if the threshold concentration is >250 μm)”. Moreover, the IC50 in data set [2] was above 10 µM. In data set [3], the IC50 is below 0.1 µM.
As to `COc1ccc(Nc2ccc(C(=O)c3c[nH]c4ncnc(NCC(F)(F)F)c34)c(F)n2)cn1` [Compound P-4084, [2-fluoro-6-[(6-methoxy-3-pyridyl)amino]-3-pyridyl]-[4-(2,2,2-trifluoroethylamino)-7H-pyrrolo[2,3-d]pyrimidin-5-yl]methanone], in data set [1], the “turbidity threshold (L, M, H) 1.4” value is reported as “M (moderate solubility if the threshold concentration is 31.3 μM to 250 μM)”; the “turbidity threshold (L, M, H) 4.5” value is given as “M (moderate solubility if the threshold concentration is 31.3 μM to 250 μM)”; the “turbidity threshold (L, M, H) 6.8” value is recorded as “M (moderate solubility if the threshold concentration is 31.3 μM to 250 μM)”; the “turbidity threshold (L, M, H) 7.4” value was “H (high solubility if the threshold concentration is >250 μm)”. Moreover, the IC50 in data set [2] was above 10 µM. Also, in data set [3], the IC50 is below 0.1 µM.
In the case of `O=C(c1ccc(NC2CCC(F)(F)CC2)nc1)c1c[nH]c2ncnc(NCC(F)(F)F)c12` [Compound P-4087, [6-[(4,4-difluorocyclohexyl)amino]-3-pyridyl]-[4-(2,2,2-trifluoroethylamino)-7H-pyrrolo[2,3-d]pyrimidin-5-yl]methanone], in data set [1], the “turbidity threshold (L, M, H) 1.4” value was “H (high solubility if the threshold concentration is >250 μm)”; the “turbidity threshold (L, M, H) 4.5” value is recorded as “M (moderate solubility if the threshold concentration is 31.3 μM to 250 μM)”; the “turbidity threshold (L, M, H) 6.8” value was “M (moderate solubility if the threshold concentration is 31.3 μM to 250 μM)”; the “turbidity threshold (L, M, H) 7.4” value is “M (moderate solubility if the threshold concentration is 31.3 μM to 250 μM)”. Besides, the IC50 in data set [2] is above 10 µM. In data set [3], the 50% inhibitory concentration (IC50) was below 0.1 µM.
On to `O=C(c1ccc(NC2CCC(F)(F)CC2)nc1)c1c[nH]c2ncnc(NC3CC3)c12` [Compound P-4088, [4-(cyclopropylamino)-7H-pyrrolo[2,3-d]pyrimidin-5-yl]-[6-[(4,4-difluorocyclohexyl)amino]-3-pyridyl]methanone], for which, in data set [1], the “turbidity threshold (L, M, H) 1.4” value is “H (high solubility if the threshold concentration is >250 μm)”; the “turbidity threshold (L, M, H) 4.5” value is on record as “M (moderate solubility if the threshold concentration is 31.3 μM to 250 μM)”; the “turbidity threshold (L, M, H) 6.8” value is listed as “M (moderate solubility if the threshold concentration is 31.3 μM to 250 μM)”; the “turbidity threshold (L, M, H) 7.4” value is “M (moderate solubility if the threshold concentration is 31.3 μM to 250 μM)”. For the same compound, in data set [2], the IC50 was above 10 µM. Further, the half-maximal inhibitory concentration (IC50) in data set [3] is below 1 µM.
For `CNc1ncnc2[nH]cc(C(=O)c3ccc(NC4CCC(F)(F)CC4)nc3)c12` [Compound P-4089, [6-[(4,4-difluorocyclohexyl)amino]-3-pyridyl]-[4-(methylamino)-7H-pyrrolo[2,3-d]pyrimidin-5-yl]methanone], in data set [1], the “turbidity threshold (L, M, H) 1.4” value is on record as “H (high solubility if the threshold concentration is >250 μm)”; the “turbidity threshold (L, M, H) 4.5” value is reported as “M (moderate solubility if the threshold concentration is 31.3 μM to 250 μM)”; the “turbidity threshold (L, M, H) 6.8” value is given as “M (moderate solubility if the threshold concentration is 31.3 μM to 250 μM)”; the “turbidity threshold (L, M, H) 7.4” value is listed as “M (moderate solubility if the threshold concentration is 31.3 μM to 250 μM)”. Further, in data set [2], the IC50 is above 10 µM. For the same compound, the IC50 in data set [3] was below 1 µM.
Take `O=C(c1ccc(Nc2ccc(C(F)(F)F)nc2)nc1F)c1c[nH]c2ncnc(NC3CC3)c12` [Compound P-4091, [4-(cyclopropylamino)-7H-pyrrolo[2,3-d]pyrimidin-5-yl]-[2-fluoro-6-[[6-(trifluoromethyl)-3-pyridyl]amino]-3-pyridyl]methanone]: in data set [1], the “turbidity threshold (L, M, H) 1.4” value is “H (high solubility if the threshold concentration is >250 μm)”; the “turbidity threshold (L, M, H) 4.5” value is on record as “M (moderate solubility if the threshold concentration is 31.3 μM to 250 μM)”; the “turbidity threshold (L, M, H) 6.8” value is listed as “M (moderate solubility if the threshold concentration is 31.3 μM to 250 μM)”; the “turbidity threshold (L, M, H) 7.4” value is listed as “M (moderate solubility if the threshold concentration is 31.3 μM to 250 μM)”. The IC50 in data set [2] was above 10 µM. Also, in data set [3], the concentration for half-maximal inhibition (IC50) is below 0.1 µM.
Regarding `CNc1ncnc2[nH]cc(C(=O)c3ccc(Nc4ccc(C(F)(F)F)nc4)nc3F)c12` [Compound P-4092, [2-fluoro-6-[[6-(trifluoromethyl)-3-pyridyl]amino]-3-pyridyl]-[4-(methylamino)-7H-pyrrolo[2,3-d]pyrimidin-5-yl]methanone], in data set [1], the “turbidity threshold (L, M, H) 1.4” value is reported as “M (moderate solubility if the threshold concentration is 31.3 μM to 250 μM)”; the “turbidity threshold (L, M, H) 4.5” value is given as “M (moderate solubility if the threshold concentration is 31.3 μM to 250 μM)”; the “turbidity threshold (L, M, H) 6.8” value is “M (moderate solubility if the threshold concentration is 31.3 μM to 250 μM)”; the “turbidity threshold (L, M, H) 7.4” value was “M (moderate solubility if the threshold concentration is 31.3 μM to 250 μM)”. The IC50 in data set [2] was above 10 µM. Moreover, the IC50 in data set [3] is below 0.1 µM.
Consider `O=C(c1ccc(Nc2ccc(C3CC3)nc2)nc1F)c1c[nH]c2ncnc(NC3CC3)c12` [Compound P-4093, [4-(cyclopropylamino)-7H-pyrrolo[2,3-d]pyrimidin-5-yl]-[6-[(6-cyclopropyl-3-pyridyl)amino]-2-fluoro-3-pyridyl]methanone], for which, in data set [1], the “turbidity threshold (L, M, H) 1.4” value is “H (high solubility if the threshold concentration is >250 μm)”; the “turbidity threshold (L, M, H) 4.5” value is on record as “L (low solubility if the threshold concentration is <31.3 μM)”; the “turbidity threshold (L, M, H) 6.8” value is “L (low solubility if the threshold concentration is <31.3 μM)”; the “turbidity threshold (L, M, H) 7.4” value is recorded as “L (low solubility if the threshold concentration is <31.3 μM)”. Also, the half-inhibitory concentration (IC50) in data set [2] was above 10 µM. The IC50 in data set [3] was below 0.1 µM.
Take `CNc1ncnc2[nH]cc(C(=O)c3ccc(Nc4ccc(C5CC5)nc4)nc3F)c12` [Compound P-4094, [6-[(6-cyclopropyl-3-pyridyl)amino]-2-fluoro-3-pyridyl]-[4-(methylamino)-7H-pyrrolo[2,3-d]pyrimidin-5-yl]methanone]: in data set [1], the “turbidity threshold (L, M, H) 1.4” value was “H (high solubility if the threshold concentration is >250 μm)”; the “turbidity threshold (L, M, H) 4.5” value was “L (low solubility if the threshold concentration is <31.3 μM)”; the “turbidity threshold (L, M, H) 6.8” value is “M (moderate solubility if the threshold concentration is 31.3 μM to 250 μM)”; the “turbidity threshold (L, M, H) 7.4” value was “M (moderate solubility if the threshold concentration is 31.3 μM to 250 μM)”. In addition, the IC50 in data set [2] was above 10 µM. Moreover, the concentration for half-maximal inhibition (IC50) in data set [3] is below 0.01 µM.
